# Experimental data reported in paper PMC6433685, “Histone deacetylase inhibitor LMK235 attenuates vascular constriction and aortic remodelling in hypertension” (Journal of Cellular and Molecular Medicine, 2019).
# Tests used:
# [1] = tested on: bisphenol A‐induced hypertension; set-up: method as in PMID 25103225; conditions: cited from earlier work
# rat mesenteric arteries = assay: Isometric tension: relaxation of U46619-induced contraction in rat mesenteric artery rings; set-up: species or system Sprague‐Dawley rats; conditions: mesenteric artery rings pretreated with 100 μmol/L for 30 minutes
# Text: Male Sprague‐Dawley rats were purchased from Orient Bio (Gyeonggi‐do, South Korea). The thoracic aortas and mesenteric arteries were excised and immersed in an ice‐cold, modified Krebs solution composed of NaCl (115 mmol/L), KCl (4.7 mmol/L), CaCl2 (2.5 mmol/L), MgCl2 (1.2 mmol/L), NaHCO3 (25 mmol/L), KH2PO4 (1.2 mmol/L) and dextrose (10 mmol/L). Mesenteric arteries are secondary branches of the main mesenteric trunk. The aortas and mesenteric arteries were cleaned by removing adherent connective tissue, soaked in the Krebs‐bicarbonate solution and cut into four ring segments (3.5 mm in length), as described previously.14 Some rings were denuded of endothelium by gently rubbing the internal surface with the edge of the forceps. Each aortic ring was suspended in a water‐jacketed organ bath (6 mL) maintained at 37°C and aerated with a mixture of 95% O2 and 5% CO2. Each ring was connected to an isometric force transducer (Danish Myo Technology, Skejbyparken, Aarhus N, Denmark). Rings were stretched to an optimal resting tension of 2.0 g, which was maintained throughout the experiment. Each ring was equilibrated in the organ bath solution for 90 minutes before the experiment involving the contractile response to 50 mmol/L of KCl addition. […]
# HUVECs = assay: Nitric oxide production in HUVECs (DAF-FM DA fluorescence); type: cell-based, Human; conditions: 250 μmol/L, 24 h
# Description: A10 vascular smooth muscle cells (VSMCs) were incubated with Dulbecco's modified Eagle medium (DMEM) with 4500 mg/L glucose containing 10% foetal bovine serum (FBS). Passages were carried out every 2 or 3 days. VSMCs were maintained in DMEM in the presence of 10% FBS with low glucose (1000 mg/L). Human umbilical vein endothelial cells (HUVECs) were obtained from Gibco (Waltham, MA, USA). HUVECs were grown in an endothelial cell basal medium (EBM) with EGM‐2 bullet kit (Lonza, Walkersville, MD) and maintained at 37°C under 5% CO2. Cells were cultured for 5‐7 passages.
# We used a nitric oxide‐sensitive fluorescence probe, 4‐amino‐5‐methylamino‐2′,7′‐difluorescein diacetate (DAF‐FM DA, Cayman), for nitric oxide detection. HUVECs were seeded on coverslips in 12‐well plates (1.5 × 10^5/mL). Cells, serum‐starved with EBM for 16 hour, were treated with LMK235 (1 μmol/L) or L‐NAME (250 μmol/L) for 24 hour and incubated with DAF‐FM DA (2.5 μmol/L) for 45 minutes. Next, the cells were fixed with 70% ethanol for 45 minutes and mounted using Prolog Gold antifade reagent and DAPI (Invitrogen, USA).
# [2] = tested on: angiotensin II‐induced hypertensive mice; conditions: cited from earlier work; for elevated BP: angiotensin II-induced hypertensive mice
# SHRs = conditions: cited from earlier work
compound,measurement,setting,value
COc1ccc(S(=O)(=O)N(CCO)c2ccccc2CN(C)C/C=C/c2ccc(Cl)cc2)cc1 [KN 93],bisphenol A-induced hypertension,[1],inhibit
"COC(=O)[C@@H](N)CCCNC(N)=N[N+](=O)[O-] [L‐NAME, reference compound]",LMK235-induced vascular relaxation,rat mesenteric arteries,inhibited vascular relaxation
same,LMK235-induced increase of nitric oxide production,HUVECs,reduced
Cn1c(/C=C/C(=O)NO)ccc1/C=C/C(=O)c1cccc(F)c1 [MC1568],vascular hypertrophy and hyperplasia,[2]; angiotensin II-induced hypertensive mice and VSMCs,attenuates
same,elevated BP,[2],lowered elevated BP
"CC(/C=C/C(=O)NO)=C\[C@@H](C)C(=O)c1ccc(N(C)C)cc1 [TSA, Trichostatin A]",augmented angiotensin II-induced contraction in the mesenteric artery,SHRs; SHRs,reversed
same,systolic BP,SHRs; SHRs,decreased systolic BP
CN1CCc2c(c3ccccc3n2Cc2ccc(C(=O)NO)cc2)C1 [tubastatin A],elevated BP,[2],not
CCCC(CCC)C(=O)O [valproic acid],BP,SHRs; SHRs or DOCA-salt-induced hypertensive rats,attenuated BP
same,cardiac AT1 mRNA levels,SHRs; SHRs,reduced
